Values joined by “and” are separate entries in the source; they are usually repeats but may differ in a detail not shown here. Equal entries are not always repeated. No end group written: not given here.
Columns and labels:
[1] = test system: T2 target cells, gp100-reactive TIL 1200 lymphocytes; experiment: Chromium-release assay, target cell sensitization for lysis by TIL 1200; assay type: cell-based, human; conditions: E:T 20:1, T2 target cells preincubated 90 min with 1 μM peptide, 5 hours
Description: Chromium release assays were performed as described previously (Bakker et al., 1994, J. Exp. Med. 179:1005). […] Various amounts of effector cells were then added to the target cells in triplicate wells of U bottomed microliter plates (Costar, Badhoevedorp, The Netherlands) in a final volume of […]. […] After 5 h of incubation, part of the supernatant was harvested and its radioactive content was measured. The mean percentage specific lysis of triplicate wells was calculated using the formula: % specific lysis=((experimental release−spontaneous release)÷(maximal release−spontaneous release))×100.

[2] = test system: T2 target cells, Melan-A/MART-1 27-35-reactive TIL 1235 lymphocytes; experiment: Chromium-release assay, target cell sensitization for lysis by TIL 1235; assay type: cell-based, human; conditions: E:T 20:1, T2 target cells preincubated 90 min with 1 μM peptide, 5 hours
HLA-A*0201 [3] = biological target: T1, HLA-A*0201 (Homo sapiens, UniProt P04439, D140Y/D185E/D98H/E176V/E277Q/G131W/G231S/I119V/I121R/I166T/I218V/L300P/L318F/N151K/N90K/P208A/P217A/Q86G/Q94H/R138H/R169H/T345S); experiment: Peptide-induced HLA-A*0201 upregulation/stabilization on T2 cells; assay type: binding
T1 construct: Peptide-induced HLA-A*0201 upregulation on T2 cells was performed as described previously; endogenous in cells; host or cells: T2 cells (processing-defective, HLA-A*0201+)

HLA-A*0201 [4] = biological target: T1, HLA-A*0201; experiment: Competition based HLA-A*0201 peptide-binding assay on JY cells; conditions: competition with Fluorescein labeled reference peptide at 4° C., mild acid treated HLA-A*0201+ B-LCL; read-out: Affinity IC50

| Sequence | target cell lysis by TIL 1200 (% specific lysis) [1] [%] | target cell lysis by TIL 1235 (% specific lysis) [2] | further results |
| --- | --- | --- | --- |
| KTWGAYWQV | 9 | – | – |
| ALGIGILTV [Melan-A/MART-1 27-35 N-terminal anchor-replacement analogue] | – | 16% | – |
| KTWAQYWQV | 63 | – | – |
| YLEPGPVTA [reference compound] | 3 | −3% and −1% | – |
| AAGIGILAV [alanine-substituted Melan-A/MART-1 27-35 analogue] | – | 11% | – |
| AMGIGILTV [Melan-A/MART-1 27-35 N-terminal anchor-replacement analogue] | – | 6% | – |
| AIGIGILTV [Melan-A/MART-1 27-35 N-terminal anchor-replacement analogue] | – | 27% | HLA-A*0201 stabilization (Fluorescence Index) (HLA-A*0201 [3]; 25 μM peptide): 1.29; HLA-A*0201 stabilization (Fluorescence Index) (HLA-A*0201 [3]; 50 μM peptide): 1.58 |
| KLWGQYWQV | – | – | IC50 (HLA-A*0201 [4]): 400 nM |
| AAGAGILTV [alanine-substituted Melan-A/MART-1 27-35 analogue] | – | 0% | – |
| GAGIGILTV [glycine-substituted Melan-A/MART-1 27-35 analogue] | – | 52% | – |
| AAGIAILTV [alanine-substituted Melan-A/MART-1 27-35 analogue] | – | 4% | – |
| AAAIGILTV [alanine-substituted Melan-A/MART-1 27-35 analogue] | – | 13% | – |
| KMWGQYWQV | 57 | – | – |
| KTWGQYAQV | −2 | – | – |
| KIWGQYWQV | – | – | IC50 (HLA-A*0201 [4]): 600 nM |
| AVGIGILTV [Melan-A/MART-1 27-35 N-terminal anchor-replacement analogue] | – | 27% | – |
| KAWGQYWQV | 64 | – | – |
| AGGIGILTV [glycine-substituted Melan-A/MART-1 27-35 analogue] | – | 6% | – |
| KTWGQAWQV | 7 | – | – |
| AAGIGILTA [alanine-substituted Melan-A/MART-1 27-35 analogue] | – | 26% | HLA-A*0201 stabilization (Fluorescence Index) (HLA-A*0201 [3]; 25 μM peptide): 1.03; HLA-A*0201 stabilization (Fluorescence Index) (HLA-A*0201 [3]; 50 μM peptide): 1.00 |
| KTAGQYWQV | 58 | – | – |
| AAGIGALTV [alanine-substituted Melan-A/MART-1 27-35 analogue] | – | 2% | – |
| KTWGQYWQA | 76 | – | – |
| AAGIGIATV [alanine-substituted Melan-A/MART-1 27-35 analogue] | – | 6% | – |
| ATWGQYWQV | 75 | – | – |
| KVWGQYWQV | – | – | IC50 (HLA-A*0201 [4]): 800 nM |
| KTWGQYWAV | – | – | IC50 (HLA-A*0201 [4]): 500 nM |

Reference: patent US8075900B2, “Melanoma associated peptide analogues and vaccines against melanoma” (The United States of America, as represented by the …, priority 1996, dated 2011)
